Assay results as given in ChEMBL document CHEMBL4765295, “Synthesis, pharmacological profile and 2D-QSAR studies of curcumin-amino acid conjugates as potential drug candidates” (Eur J Med Chem, 2020).
Several values for one entry are separate records, joined by “and”; a condition that tells them apart may be missing. Equal entries are not always repeated.

What was measured:
Rattus norvegicus [1] = assay: Antiinflammatory activity in Wistar rat model of carrageenan-induced paw edema assessed as reduction in thickness of paw edema at 10 mg/kg, ip pretreated for 1 hr followed by carrageenan challenge and measured after 1 hr (reference value: 2.41 +/-0.05 mm); type: functional; details: time 1 hr after carrageenan
Rattus norvegicus [2] = assay: Anti-inflammatory activity in Wistar rat assessed as inhibition of carrageenan-induced paw edema at 10 mg/kg, ip pretreated for 1 hr followed by carrageenan challenge and measured after 1 hr relative to control (reference value: 0.00 +/-0.02 %); type: functional; details: time 2 hrs
Rattus norvegicus [3] = assay: Antiinflammatory activity in Wistar rat model of carrageenan-induced paw edema assessed as reduction in thickness of paw edema at 10 mg/kg, ip pretreated for 1 hr followed by carrageenan challenge and measured after 2 hrs (reference value: 2.06 +/-0.09 mm); type: functional; details: time 3 hrs
Rattus norvegicus [4] = assay: Anti-inflammatory activity in Wistar rat assessed as inhibition of carrageenan-induced paw edema at 10 mg/kg, ip pretreated for 1 hr followed by carrageenan challenge and measured after 2 hr relative to control (reference value: 0.00 +/-0.03 %); type: functional; details: time 3 hrs
Rattus norvegicus [5] = assay: Antiinflammatory activity in Wistar rat model of carrageenan-induced paw edema assessed as reduction in thickness of paw edema at 10 mg/kg, ip pretreated for 1 hr followed by carrageenan challenge and measured after 3 hrs (reference value: 1.79 +/-0.07 mm); type: functional; details: time 4 hrs
Rattus norvegicus [6] = assay: Anti-inflammatory activity in Wistar rat assessed as inhibition of carrageenan-induced paw edema at 10 mg/kg, ip pretreated for 1 hr followed by carrageenan challenge and measured after 3 hr relative to control (reference value: 0.00 +/-0.1 %); type: functional; details: time 4 hrs
Rattus norvegicus [7] = assay: Antiinflammatory activity in Wistar rat model of carrageenan-induced paw edema assessed as reduction in thickness of paw edema at 10 mg/kg, ip pretreated for 1 hr followed by carrageenan challenge and measured after 4 hrs (reference value: 1.40 +/-0.10 mm); type: functional; details: time 5 hrs
Rattus norvegicus [8] = assay: Anti-inflammatory activity in Wistar rat assessed as inhibition of carrageenan-induced paw edema at 10 mg/kg, ip pretreated for 1 hr followed by carrageenan challenge and measured after 4 hr relative to control (reference value: 0.00 +/-0.4 %); type: functional; details: time 5 hrs
Rattus norvegicus [9] = assay: Antiinflammatory activity in Wistar rat model of carrageenan-induced paw edema assessed as reduction in thickness of paw edema at 10 mg/kg, ip pretreated for 1 hr followed by carrageenan challenge and measured after 24 hrs (reference value: 0.83 +/-0.08 mm); type: functional; details: time 25 hrs
Rattus norvegicus [10] = assay: Anti-inflammatory activity in Wistar rat assessed as inhibition of carrageenan-induced paw edema at 10 mg/kg, ip pretreated for 1 hr followed by carrageenan challenge and measured after 24 hr relative to control (reference value: 0.00 +/-0.3 %); type: functional; details: time 25 hrs
Rattus norvegicus [11] = assay: Anti-inflammatory activity in Wistar rat assessed as inhibition of carrageenan-induced paw edema at 10 mg/kg, ip pretreated for 1 hr followed by carrageenan challenge and measured after 4 hr relative to indomethacin; type: functional; details: time 5 hrs
[12] = Ulcerogenic activity in fasted albino mouse assessed as incidence of gastric ulceration at 10 mg/kg, po for 3 days (reference value: 0 %); type: toxicity, organism-based; details: in vivo, 72 h, time 3 day
[13] = Ulcerogenic activity in fasted albino mouse assessed as average number of ulcers in gastric mucosa at 10 mg/kg, po for 3 days (reference value: 0); type: toxicity, organism-based; details: in vivo, 72 h, time 3 day
[14] = Ulcerogenic activity in fasted albino mouse assessed as average severity of ulcers in gastric mucosa at 10 mg/kg, po for 3 days (reference value: 0); type: toxicity, organism-based; details: in vivo, 72 h, time 3 day
[15] = Ulcerogenic activity in fasted albino mouse assessed as ulcer index in gastric mucosa at 10 mg/kg, po for 3 days (reference value: 0); type: toxicity, organism-based; details: in vivo, 72 h, time 3 day
Splenocyte [16] = assay: Immunomodulatory activity in Swiss albino mouse splenocytes assessed as cell viability at 10 uM by measuring stimulation index incubated for 72 hrs in presence of mitogenic stimulus phytohaemagglutinin by MTT assay (reference value: 1.00 +/- 0.24); type: functional
Splenocyte [17] = assay: Immunomodulatory activity in Swiss albino mouse splenocytes assessed as cell viability at 10 uM by measuring inhibition of stimulation index incubated for 72 hrs in presence of mitogenic stimulus phytohaemagglutinin by MTT assay relative to indomethacin; type: functional; details: read-out: Activity
Peritoneal macrophage [18] = assay: Antiinflammatory activity in […] mouse Peritoneal macrophages assessed as reduction in LPS-induced NO production by measuring reduction in stimulation index at 10 uM preincubated for 1 hr followed by LPS stimulation measured after 24 hrs by Griess method (reference value: 27.31 +/- 2.56 uM); type: functional; details: time 25 hrs
Peritoneal macrophage [19] = assay: Antiinflammatory activity in […] mouse Peritoneal macrophages assessed as inhibition of LPS-induced NO production at 10 uM preincubated for 1 hr followed by LPS stimulation measured after 24 hrs by Griess method relative to control (reference value: 0.0 %); type: functional; set-up: scale not given: the % may be the effect or the level left; details: time 25 hrs
Mus musculus [20] = assay: Analgesic activity in albino mouse assessed reduction in acetic acid-induced abdominal writhing by measuring writing reflex at 10 mg/kg, ip pretreated for 1 hr followed by acetic acid challenge and measured starting 5 mins post acetic acid challenge for 10 mins (reference value: 42.4 +/- 1.02); type: functional; details: time 75 min, 1.25 h
Mus musculus [21] = assay: Analgesic activity in albino mouse assessed protection against acetic acid-induced abdominal writhing at 10 mg/kg, ip pretreated for 1 hr followed by acetic acid challenge and measured starting 5 mins post acetic acid challenge for 10 mins relative to control (reference value: 0 %); type: functional; details: time 75 min, 1.25 h
Mus musculus [22] = assay: Analgesic activity in albino mouse assessed protection against acetic acid-induced abdominal writhing at 10 mg/kg, ip pretreated for 1 hr followed by acetic acid challenge and measured starting 5 mins post acetic acid challenge for 10 mins relative to indomethacin; type: functional; details: time 75 min, 1.25 h
Mus musculus [23] = assay: Analgesic activity in albino mouse assessed as forepaw licking/jumping latency time at 10 mg/kg, ip measured after 30 mins by hot plate test (reference value: 5.02 +/- 0.09 sec); type: functional; details: 0.5 h
Mus musculus [24] = assay: Analgesic activity in albino mouse assessed as protection at 10 mg/kg, ip measured after 30 mins by hot plate test (reference value: 0 %); type: functional; details: 0.5 h
Mus musculus [25] = assay: Analgesic activity in albino mouse assessed as forepaw licking/jumping latency time at 10 mg/kg, ip measured after 60 mins by hot plate test (reference value: 3.42 +/- 0.03 sec); type: functional; details: 1 h
Mus musculus [26] = assay: Analgesic activity in albino mouse assessed as protection at 10 mg/kg, ip measured after 60 mins by hot plate test (reference value: 0 %); type: functional; details: 1 h
Mus musculus [27] = assay: Analgesic activity in albino mouse assessed as forepaw licking/jumping latency time at 10 mg/kg, ip measured after 90 mins by hot plate test (reference value: 2.72 +/- 0.01 sec); type: functional; details: 1.5 h
Mus musculus [28] = assay: Analgesic activity in albino mouse assessed as protection at 10 mg/kg, ip measured after 90 mins by hot plate test (reference value: 0 %); type: functional; details: 1.5 h
Mus musculus [29] = assay: Analgesic activity in albino mouse assessed as forepaw licking/jumping latency time at 10 mg/kg, ip measured after 120 mins by hot plate test (reference value: 2.62 +/- 0.06 sec); type: functional; details: 2 h
Mus musculus [30] = assay: Analgesic activity in albino mouse assessed as protection at 10 mg/kg, ip measured after 120 mins by hot plate test (reference value: 0 %); type: functional; details: 2 h
Mus musculus [31] = assay: Analgesic activity in albino mouse assessed as protection at 10 mg/kg, ip measured after 120 mins by hot plate test relative to indomethacin; type: functional; details: 2 h
Staphylococcus aureus = assay: Antibacterial activity against Staphylococcus aureus ATCC 25923 incubated for 18 hrs by agar dilution method; type: functional
Streptococcus pyogenes = assay: Antibacterial activity against Streptococcus pyogenes ATCC 19615 incubated for 18 hrs by agar dilution method; type: functional
Salmonella typhimurium = assay: Antibacterial activity against Salmonella typhimurium ATCC 19430 incubated for 18 hrs by agar dilution assay; type: functional, Salmonella enterica subsp. enterica serovar Typhimurium; details: Salmonella enterica
Pseudomonas aeruginosa = assay: Antibacterial activity against Pseudomonas aeruginosa ATCC 27853 incubated for 18 hrs by agar dilution assay; type: functional
Candida albicans = assay: Antifungal activity against Candida albicans incubated for 18 to 24 hrs by CLSI method; type: functional; details: time 18-24 hrs
[32] = Toxicity in albino mouse assessed as induction of toxic symptoms at 50 to 100 mg/kg, ip measured after 24 hrs; type: organism-based; details: in vivo, dose 50-100 mg/kg
A549 = assay: Antiproliferative activity against human A549 cells assessed as inhibition of cell growth after 72 hrs by MTT assay; type: functional, cell-based; details: A549, 72 h
MCF7 = assay: Antiproliferative activity against human MCF7 cells assessed as inhibition of cell growth after 72 hrs by MTT assay; type: functional, cell-based; details: MCF7, 72 h
PC-3 = assay: Antiproliferative activity against human PC3 cells assessed as inhibition of cell growth after 72 hrs by MTT assay; type: functional, cell-based; details: PC-3, 72 h

Row | Structure (SMILES) | Activity (Rattus norvegicus [1]) | inhibition in vivo at 10 mg/kg (Rattus norvegicus [2]) | Activity (Rattus norvegicus [3]) | inhibition in vivo at 10 mg/kg (Rattus norvegicus [4]) | Activity (Rattus norvegicus [5]) | inhibition in vivo at 10 mg/kg (Rattus norvegicus [6]) | Activity (Rattus norvegicus [7]) | inhibition in vivo at 10 mg/kg (Rattus norvegicus [8]) | Activity (Rattus norvegicus [9]) | inhibition in vivo at 10 mg/kg (Rattus norvegicus [10]) | inhibition in vivo at 10 mg/kg (Rattus norvegicus [11]) | Activity_index (Splenocyte [16]) | viability at 10 µM (Splenocyte [17]) | Activity (Peritoneal macrophage [18]) | Activity (Peritoneal macrophage [19]) | MIC (Staphylococcus aureus) | MIC (Streptococcus pyogenes) | MIC (Salmonella typhimurium) | MIC (Pseudomonas aeruginosa) | MIC (Candida albicans) | also measured
1 | COc1cc(/C=C/C(=O)/C=C(O)/C=C/c2ccc(OC(=O)[C@H](CCSC)NC(=O)OC(C)(C)C)c(OC)c2)ccc1OC(=O)[C@H](CCSC)NC(=O)OC(C)(C)C | 1.59 mm | 34% | 1.31 mm | 36% | 1.01 mm | 44% | 0.17 mm | 88% | 0.64 mm | 23% | 101% | 1.37 | 88.5% | 16.16 µM | 40.84% | 2 µg/mL and 2.41 µM | 2 µg/mL and 2.41 µM | 2 µg/mL and 2.41 µM | 1 µg/mL and 1.2 µM | 1 µg/mL and 1.2 µM | Activity [12]: 0%; Activity [13]: 0; Activity [14]: 0; UI [15]: 0; Activity (Mus musculus [20]): 12.3; Activity (Mus musculus [21]): 71%; Activity (Mus musculus [22]): 115.3%; Time (Mus musculus [23]): 5.74 s; Activity (Mus musculus [24]): 14.3%; Time (Mus musculus [25]): 5.84 s; Activity (Mus musculus [26]): 70.8%; Time (Mus musculus [27]): 4.26 s; Activity (Mus musculus [28]): 56.6%; Time (Mus musculus [29]): 3.86 s; Activity (Mus musculus [30]): 47.3%; Activity (Mus musculus [31]): 112.6%; Activity [32]: Non-Toxic
2 | COc1cc(/C=C/C(=O)/C=C(O)/C=C/c2ccc(OC(=O)C(C)N)c(OC)c2)ccc1OC(=O)C(C)N.Cl.Cl (centres undefined) | 1.11 mm | 54% | 0.94 mm | 54% | 0.81 mm | 55% | 0.22 mm | 84% | 0.6 mm | 28% | 97% | 1.91 | 63.2% | 19.75 µM | 27.69% | 0.125 µg/mL and 0.214 µM | 0.25 µg/mL and 0.428 µM | 0.25 µg/mL and 0.428 µM | 0.5 µg/mL and 0.857 µM | 1 µg/mL and 1.71 µM | IC50 (A549): 22.2 µM; IC50 (MCF7): 9.79 µM; IC50 (PC-3): 21.7 µM
3 | COc1cc(/C=C/C(=O)/C=C(O)/C=C/c2ccc(OC(=O)[C@H](C)N)c(OC)c2)ccc1OC(=O)[C@H](C)N.Cl.Cl | 1.51 mm | 37% | 1.19 mm | 42% | 0.85 mm | 53% | 0.47 mm | 66% | 0.7 mm | 16% | 76% | 1.14 | 106% | 14.68 µM | 46.24% | 0.5 µg/mL and 0.857 µM | 0.5 µg/mL and 0.857 µM | 0.5 µg/mL and 0.857 µM | 0.25 µg/mL and 0.428 µM | 0.5 µg/mL and 0.857 µM | IC50 (A549): 21.7 µM; IC50 (MCF7): 10.7 µM; IC50 (PC-3): 31.5 µM
4 | COc1cccc2c1C(=O)c1c(O)c3c(c(O)c1C2=O)C[C@@](O)(C(=O)CO)C[C@@H]3O[C@H]1C[C@H](N)[C@H](O)[C@H](C)O1 [DOXORUBICIN] |  |  |  |  |  |  |  |  |  |  |  |  |  |  |  |  |  |  |  |  | IC50 (PC-3): 38 µM
